Where “and” joins values, the source holds several entries; their conditions need not be identical. Equal values may be shown once. Entries after “also recorded” stand apart in the source; their conditions may differ. Read-outs that look alike come from different tables or passages of the source.
Key:
[1] = target: T1, human CaSR (Homo sapiens, UniProt P41180); experiment: FLIPR-based functional CaSR calcium assay in HCAR cells; type: cell-based; conditions: for fold improvement in potency toward CaSR compared to evocalcet / fold increase in potency toward CaSR compared to the evocalcet-linker conjugate: FLIPR assay
T1 construct: host or cells: CCL39 hamster lung fibroblasts stably transfected (HCAR), Geneticin selection
T1 sequence (P41180 20-1078): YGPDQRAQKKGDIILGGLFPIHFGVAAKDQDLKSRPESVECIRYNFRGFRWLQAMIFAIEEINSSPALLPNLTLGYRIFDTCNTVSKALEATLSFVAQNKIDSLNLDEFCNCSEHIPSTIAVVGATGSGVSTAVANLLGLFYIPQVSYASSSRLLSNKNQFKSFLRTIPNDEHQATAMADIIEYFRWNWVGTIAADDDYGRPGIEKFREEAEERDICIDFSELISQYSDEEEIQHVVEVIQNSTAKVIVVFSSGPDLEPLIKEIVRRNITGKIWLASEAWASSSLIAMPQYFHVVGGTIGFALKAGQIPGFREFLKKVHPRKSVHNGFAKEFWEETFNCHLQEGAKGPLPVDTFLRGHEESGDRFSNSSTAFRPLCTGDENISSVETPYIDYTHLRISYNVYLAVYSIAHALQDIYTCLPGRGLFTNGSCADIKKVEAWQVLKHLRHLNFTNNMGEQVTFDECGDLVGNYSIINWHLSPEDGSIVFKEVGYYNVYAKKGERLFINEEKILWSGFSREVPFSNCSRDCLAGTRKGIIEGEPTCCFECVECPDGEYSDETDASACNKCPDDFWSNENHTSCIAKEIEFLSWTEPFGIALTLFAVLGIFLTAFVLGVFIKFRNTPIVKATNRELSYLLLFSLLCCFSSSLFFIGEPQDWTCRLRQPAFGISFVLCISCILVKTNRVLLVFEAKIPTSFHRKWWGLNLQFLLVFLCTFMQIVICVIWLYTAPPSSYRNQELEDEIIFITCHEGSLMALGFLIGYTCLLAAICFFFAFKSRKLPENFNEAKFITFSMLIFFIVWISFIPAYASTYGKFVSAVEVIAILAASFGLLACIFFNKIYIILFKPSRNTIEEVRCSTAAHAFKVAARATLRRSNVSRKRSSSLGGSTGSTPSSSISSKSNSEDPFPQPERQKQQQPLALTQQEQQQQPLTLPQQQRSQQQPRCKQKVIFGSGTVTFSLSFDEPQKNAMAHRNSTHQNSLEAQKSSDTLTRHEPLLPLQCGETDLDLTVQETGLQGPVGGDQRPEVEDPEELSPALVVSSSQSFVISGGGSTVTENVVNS
Protocol: Hamster lung fibroblasts (CCL39, CaSR−) expressing the recombinant human CaSR (HCAR, CaSR+) and nontransected controls were kindly provided by Novartis AG and were kept in standard culturing conditions (37 °C, 5% CO2) in 1/2 DMEM (Roth, 9005.1)—1/2 F-12 (Sigma, N4888–500 mL) media containing 10% FBS. Media for the HCAR cells contained 500 μg/mL Geneticin as a selection antibiotic (Thermo Fisher, 10131035). Upon reaching 90–95% confluence, cells were detached and seeded into 96-well plates (PerkinElmer, 6005182) at a concentration of 35,000 cells per well and were incubated for 24 h before the experiment. For the functional CaSR calcium assay, cells were first washed twice with HBSS medium (Sigma, H6648), and were incubated in HBSS containing 5 μM Fluo-8 AM and 0.1 mM CaCl2 for 30 min at 37 °C. Calcium transients were measured upon addition of 0.5 mM CaCl2 with the FLIPR Tetra high-throughput cellular screening systems using the 470–495 nm LED excitation and 515–575 nm bandpass emission filters. Probe solutions contained 0.5% DMSO and were added to the cells 10 min prior to the measurement. dF/F0 values were calculated as a change in the peak fluorescence value of the transient for the first 200 data points normalized to the background fluorescence of the well. […] Both cells were washed with HBSS medium twice and then incubated for 10 min at 37 °C in HBSS medium containing 0.1% BSA in the presence or absence of 10 μM evocalcet. Upon the removal of media, cells were incubated in various concentrations of EvoSiR4 and EvoSiR6 in HBSS containing 0.1% BSA for 30 min at 37 °C and were subsequently washed 3 times with 0.1% BSA and resuspended in DMSO before the fluorometric measurement. The fluorescence was measured using a Tecan GENios pro microplate reader with the following parameters: λex = 612 nm, λem = 670 nm, gain = 50 AU. Data for the EvoSiR probes and the evocalcet competition is reported as CaSR-specific fluorescence, which was calculated by dividing the absolute fluorescence of the HCAR cells with the absolute fluorescence of the CCL39 cells for each concentration.

[2] = test system: HCAR cells; experiment: Calcein AM viability assay, HCAR cells, 72 h; type: cell-based, hamster; conditions: for IC50: Cricetulus griseus
Protocol: (§1) The effects of EvoSiR probes and evocalcet on the viability of CCL39 and HCAR cells were evaluated using the Calcein AM assay as described by the manufacturer’s protocol (AAT Bioquest, 22002) with a working concentration of 10 μM. For the assay, cells were incubated in various concentrations of the compounds for 72 h. For positive controls, cells were incubated in culture media containing maximum 10% DMSO in a two-step dilution series for 72 h. Upon incubation in the Calcein AM solution for 1 h at 37 °C, the fluorescence readouts were retrieved using the Tecan GENios pro microplate reader (λex = 485 nm, λem = 535 nm, gain = 25 AU)

[3] = test system: CCL39 cells; experiment: Calcein AM viability assay, CCL39 cells, 72 h; type: cell-based, hamster
Protocol: as §1

[4] = target: T2, bovine serum albumin (BSA) (Bos taurus, UniProt P02769); experiment: Spectrofluorometric analysis of fluorogenicity upon BSA binding; type: physicochemical; conditions: for increase in absolute fluorescence upon addition of 1% BSA: 1% BSA compared to PBS
T2 construct: purchased Sigma A7906
T2 sequence (P02769 25-607): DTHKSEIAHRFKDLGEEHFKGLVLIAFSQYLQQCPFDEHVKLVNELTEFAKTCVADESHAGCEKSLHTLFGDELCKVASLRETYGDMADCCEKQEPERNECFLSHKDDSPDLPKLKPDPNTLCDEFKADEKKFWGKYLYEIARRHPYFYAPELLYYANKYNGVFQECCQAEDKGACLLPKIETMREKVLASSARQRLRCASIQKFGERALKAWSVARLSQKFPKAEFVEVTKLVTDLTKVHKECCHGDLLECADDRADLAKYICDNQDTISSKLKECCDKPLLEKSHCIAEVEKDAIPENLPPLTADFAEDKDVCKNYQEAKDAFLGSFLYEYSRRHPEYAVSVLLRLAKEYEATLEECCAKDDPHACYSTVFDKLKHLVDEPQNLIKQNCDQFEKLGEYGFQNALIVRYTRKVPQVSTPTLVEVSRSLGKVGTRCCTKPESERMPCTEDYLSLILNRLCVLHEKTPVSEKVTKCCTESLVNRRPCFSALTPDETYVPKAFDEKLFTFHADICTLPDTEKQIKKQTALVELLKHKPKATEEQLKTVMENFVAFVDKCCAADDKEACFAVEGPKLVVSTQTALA
Protocol: Spectrofluorometric measurements were carried out by using the Agilent Cary Eclipse instrument. The voltage of the photomultiplier tube (PMT) was set to 600 for EvoSiR4 and EvoSiR6, and for 500 for SiR (4). Fluorescence of the probes was measured at concentrations ranging from 30 to 3000 nM in PBS containing various amounts of bovine serum albumin (BSA) (Sigma, A7906). Quenching experiments for the calculation of BSA binding were performed by adding a 1:1 molar ratio of tannic acid dissolved in ddH2O (Sigma, 403040) to the solution prior to measuring fluorescence.

[5] = EC50, positive allosteric modulation of CaSR activity, HCAR cells, response to addition of 0.5 mM CaCl2, no BSA

| SMILES | EC50 [1, 5] | EC50 ([1]; EC50 in 0.1% BSA, 0.1% BSA) | EC50 ([1]; EC50 in 0.5% BSA, 0.5% BSA) | EC50 ([1]; EC50 in 1% BSA, 1% BSA) | fold improvement in potency toward CaSR compared to evocalcet [1] | fold increase in potency toward CaSR compared to the evocalcet-linker conjugate [1] | fold reduction in the EC50 value upon washing with HBSS ([1]; incubated in 1% BSA, washed with HBSS upon 10 min incubation) | effect on viability at 50 μM [2] | IC50 [2] | IC50 [3] | effect on viability at 50 μM [3] | fold increased fluorescence in 0.1% BSA compared to PBS [4] | increase in absolute fluorescence upon addition of 1% BSA [4] | EC50 ([1]; HCAR cells, response to addition of 0.5 mM CaCl2, no BSA, read-out: EC50, positive allosteric modulation of CaSR activity) | concentration below which no effect on viability [2] | concentration below which no effect on viability [3] | effect of preincubating the BSA solution with evocalcet on EvoSiR4 fluorescence ([4]; evocalcet 30–6000 nM, 350 nM EvoSiR4) |
| --- | --- | --- | --- | --- | --- | --- | --- | --- | --- | --- | --- | --- | --- | --- | --- | --- | --- |
| Cc1cc(C(=O)NCCCCNC(=O)Cc2ccc(N3CC[C@H](N[C@H](C)c4cccc5ccccc45)C3)cc2)ccc1C1=C2C=CC(=[N+](C)C)C=C2[Si](C)(C)c2cc(N(C)C)ccc21 [EvoSiR4] | < 45 nM and ~40 nM and 38 nM | 64 ± 12 nM | 102 ± 34 nM | 106 ± 42 nM | 6 fold | 3 fold | 10 fold | significantly reduced | 27300 ± 2300 nM | 36000 ± 3800 nM | significantly reduced | 4 fold | 400% |  |  |  |  |
| Cc1cc(C(=O)NCCCCCCNC(=O)Cc2ccc(N3CC[C@H](N[C@H](C)c4cccc5ccccc45)C3)cc2)ccc1C1=C2C=CC(=[N+](C)C)C=C2[Si](C)(C)c2cc(N(C)C)ccc21 [EvoSiR6] | < 45 nM and ~40 nM and 42 nM |  |  |  | 6 fold | 3 fold |  | significantly reduced | 26000 ± 2300 nM | 36000 ± 6000 nM | significantly reduced | 1.8 fold | 250% |  |  |  |  |
| C[C@@H](N[C@H]1CCN(c2ccc(CC(=O)O)cc2)C1)c1cccc2ccccc12 [evocalcet] |  |  |  |  |  |  |  |  |  |  |  |  |  | 243 ± 15 nM | < 50 µM | < 50 µM | No significant decrease; also recorded: no significant difference |
